The values below come from the NIST ThermoML archive (doi:10.1016/j.jct.2008.07.005).

The mass density is the mass of a sample divided by its volume.

Series [1] can be described thus: xn = mol fraction of the nth substance listed. Particulars: 283.15 K; 98.93 kPa; Liquid; x2 = 0.

Numbers after ± are expanded uncertainties.

Consider `OCC(O)CO` [glycerol], for which the mass density runs as follows: (283.15 K, 101.33 kPa, Metastable liquid) 1266.31 ± 2.2 kg/m3; (288.15 K, 101.33 kPa, Metastable liquid) 1264.39 ± 2.1 kg/m3; (293.15 K, 101.33 kPa, Metastable liquid) 1262.53 ± 2.1 kg/m3; (298.15 K, 101.33 kPa, Metastable liquid) 1258.73 ± 2.1 kg/m3; (303.15 K, 101.33 kPa, Metastable liquid) 1254.9 ± 2.2 kg/m3; (308.15 K, 101.33 kPa, Metastable liquid) 1252.65 ± 2.2 kg/m3.

With `OCCCO` [propan-1,3-diol], the mass density by setting is: (283.15 K, 101.33 kPa, Liquid) 1056.92 ± 1.7 kg/m3; (288.15 K, 101.33 kPa, Liquid) 1055.67 ± 1.6 kg/m3; (293.15 K, 101.33 kPa, Liquid) 1053.64 ± 1.6 kg/m3; (298.15 K, 101.33 kPa, Liquid) 1050.37 ± 1.7 kg/m3; (303.15 K, 101.33 kPa, Liquid) 1047.58 ± 1.7 kg/m3; (308.15 K, 101.33 kPa, Liquid) 1044.25 ± 1.8 kg/m3.

As to `O` [water], the mass density (283.15 K, 98.93 kPa, Liquid) turned out to be 999.7 ± 1.3 kg/m3.

`O` [water] + OCCCO: the mass density in series [1] turned out to be 999.7 ± 1.3 kg/m3.

`O` [water] + CC(O)CO: in series [1], the mass density is reported as 999.7 ± 1.3 kg/m3.

For `CC(O)CO` (centres undefined) [1,2-propanediol], the mass density is, setting by setting: (283.15 K, 101.33 kPa, Liquid) 1043.32 ± 1.5 kg/m3; (288.15 K, 101.33 kPa, Liquid) 1040.45 ± 1.5 kg/m3; (293.15 K, 101.33 kPa, Liquid) 1036.15 ± 1.4 kg/m3; (298.15 K, 101.33 kPa, Liquid) 1032.71 ± 1.5 kg/m3; (303.15 K, 101.33 kPa, Liquid) 1029.62 ± 1.5 kg/m3; (308.15 K, 101.33 kPa, Liquid) 1025.13 ± 1.6 kg/m3.

In the case of `O` [water] + OCC(O)CO, the mass density in series [1] is 999.7 ± 1.3 kg/m3.

For `CCCO` [propan-1-ol], the mass density reads like this: (283.15 K, 101.33 kPa, Liquid) 811.34 ± 1.2 kg/m3; (288.15 K, 101.33 kPa, Liquid) 807.51 ± 1.1 kg/m3; (293.15 K, 101.33 kPa, Liquid) 803.65 ± 1.1 kg/m3; (298.15 K, 101.33 kPa, Liquid) 799.67 ± 1.1 kg/m3; (303.15 K, 101.33 kPa, Liquid) 795.95 ± 1.2 kg/m3; (308.15 K, 101.33 kPa, Liquid) 791.57 ± 1.2 kg/m3.

Regarding `O` [water] + CCCO, the mass density in series [1] is on record as 999.69 ± 1.3 kg/m3.
